Experimental data: US8568814B2, “Lanthionine derivatives” (Ajinomoto Co., Inc., priority 2009, dated 2013)

How the values were obtained:
[1] = target: T1, human CaSR (Homo sapiens, UniProt P41180, E1011Q); experiment: Evaluation (1) and (2) of CaSR agonist activity (Ca2+ fluorescence in transfected 293E cells); format: cell-based; conditions: 293E cells transfected with hCaSR/pcDNA3.1; Calcium 4/5 Assay Kit; methods (1) and (2)
T1 construct: expressed in transfected cells; host or cells: 293E cells (EBNA1-expression HEK293 cells, ATCC No. CRL-10852), transient transfection of hCaSR/pcDNA3.1
T1 sequence (P41180 20-1078 E1011Q): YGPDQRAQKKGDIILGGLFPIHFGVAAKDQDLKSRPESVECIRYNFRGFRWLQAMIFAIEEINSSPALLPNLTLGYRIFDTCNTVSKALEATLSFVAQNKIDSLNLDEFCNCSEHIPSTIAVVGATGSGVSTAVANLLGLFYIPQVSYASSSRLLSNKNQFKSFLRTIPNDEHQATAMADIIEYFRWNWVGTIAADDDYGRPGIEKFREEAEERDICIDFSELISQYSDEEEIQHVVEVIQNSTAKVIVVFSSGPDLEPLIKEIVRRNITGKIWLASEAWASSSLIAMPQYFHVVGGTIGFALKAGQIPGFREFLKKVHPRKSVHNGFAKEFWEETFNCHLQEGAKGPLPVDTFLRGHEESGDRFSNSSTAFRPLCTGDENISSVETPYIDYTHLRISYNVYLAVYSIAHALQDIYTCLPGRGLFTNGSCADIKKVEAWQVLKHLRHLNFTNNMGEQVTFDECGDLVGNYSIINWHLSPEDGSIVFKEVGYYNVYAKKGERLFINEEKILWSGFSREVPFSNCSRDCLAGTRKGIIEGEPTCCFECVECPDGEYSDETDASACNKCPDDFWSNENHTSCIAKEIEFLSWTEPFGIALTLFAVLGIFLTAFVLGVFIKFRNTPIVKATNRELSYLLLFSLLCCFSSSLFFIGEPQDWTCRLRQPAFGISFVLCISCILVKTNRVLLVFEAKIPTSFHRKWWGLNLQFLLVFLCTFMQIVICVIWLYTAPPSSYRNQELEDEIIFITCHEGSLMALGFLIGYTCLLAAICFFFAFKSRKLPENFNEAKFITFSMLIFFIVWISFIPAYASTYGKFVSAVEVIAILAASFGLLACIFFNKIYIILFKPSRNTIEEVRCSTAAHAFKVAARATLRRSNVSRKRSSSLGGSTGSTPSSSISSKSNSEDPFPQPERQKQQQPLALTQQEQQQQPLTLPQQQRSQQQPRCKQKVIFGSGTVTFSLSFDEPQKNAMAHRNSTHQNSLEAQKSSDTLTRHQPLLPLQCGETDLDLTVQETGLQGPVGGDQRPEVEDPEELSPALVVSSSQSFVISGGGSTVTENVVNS
Protocol: (§1) 293E Cells (EBNA1-expression HEK293 cells, ATCC No. CRL-10852) were cultivated in DMEM/Ham's-F12 (3.15/ml Glucose-containing Dulbecco's modified Eagle medium; available from NAKARAI TESK Company) containing 10% fetal calf serum in the presence of 200 μg/ml of G418 (available from Genetisine Company). The cultured cells were inoculated in F25 flask at a density of 3×10^6 cells/10 ml, then the content of the flask was allowed to stand for 24 hours in a CO2 incubator (5% CO2, 37° C.), and then the human CaSR-expression plasmid hCaSR/pcDNA3.1 was transfected using a transfection agent Fugene 6 (available from Roche Company). After allowing the flask to stand in a CO2 incubator for 6 to 7 hours, the cells were recovered using 10% fetal calf serum-containing DMEM/Ham's-F12 and then inoculated in each well of a poly-D-lysine coat 96-well plate (BD-Biocoat) at a density of 70,000 cells/well.
(§2) After allowing the well plate to stand in a CO2 incubator for 24 hours, the culture medium was removed from each well of the 96-well plate to which the cells had been inoculated, and a solution of Ca^2+ fluorescent indicator Calcium 4 Assay Kit (available from Molecular Devices Company) in an Assay Buffer (containing 146 mM of NaCl, 5 mM of KCl, 1 mM of MgSO4, 1 mg/ml of Glucose, 20 mM of HEPES (pH 7.2), and 0.75 to 1.25 mM of CaCl2) in an amount of 200 μl/well was added to each well, and each well was allowed to stand at 37° C. for one hour and then at room temperature for 10 minutes to thus make the cells take the indicator.
(§3) To each well of the 96-well plate, a solution of a test compound in a 0.1% BSA-containing Assay Buffer in an amount of 50 μl/well was added, and the wells were inspected for any change in the intensity of fluorescent light rays emitted therefrom for 3 minutes using FLEX Station (available from Molecular Devices Company).
(§4) Method for the Calculation of EC50
(§5) The difference (RFU (Max-Min) between the maximum and minimum intensities of fluorescent light rays observed before and after the addition of the test compound were calculated according to the automatic calculation by the FLEX Station. In this respect, the activity rate of a test compound was calculated, while the RFU (Max-Min) value observed when adding a test compound in a maximum concentration was defined to be 100% and the RFU (Max-Min) value observed when using a 0.1% BSA-containing Assay Buffer free of any added test compound was defined to be 0%, then the curve-fitting was carried out using a software Xfit for spreadsheet or a GraphPad Prism to thus determine each corresponding EC50 value as the concentration of each test compound observed at the activity rate of 50%.
as §1, with “plasmid:” for “plasmid”, “384-well” for “96-well”, “2×10^6” for “70,000”, “cells/well. […]” for “cells/well.”

[2] = tested on: panelists; experiment: Quantitative organoleptic evaluation of kokumi-imparting activity in dried-bonito extract; format: in vivo, human; conditions: for Intensity of Kokumi After Taste / Intensity of Kokumi Initial-Middle Taste: score scale -5 to +5, n=5
Protocol: The pH value of the samples used was adjusted to that of the control free of any test compound (i.e., the pH value of the latter +0.2). […] The scoring was carried out using the linear-scale technique, in which each corresponding score was plotted on a straight line on which the scores equal to −5, 0 and +5 had been expressly specified. […] In this respect, the term “initial-middle taste” means the taste detected from 0 to 5 seconds after placing and maintaining each sample in each panelist's mouth, and the term “after taste” means that detected thereafter.

[3] = target: T2, human CaSR (Homo sapiens, UniProt P41180); experiment: Evaluation (1) and (2) of CaSR agonist activity (Ca2+ fluorescence in transfected 293E cells); format: cell-based; conditions: ratio to γ-Glu-Cys
T2 construct: expressed in transfected cells; host or cells: 293E cells (EBNA1-expression HEK293 cells, ATCC No. CRL-10852), transient transfection of hCaSR/pcDNA3.1
T2 sequence (P41180 20-1078 E1011Q): T1 sequence (P41180 20-1078 E1011Q)
Protocol: as §1, §2, §3, §4, §5
as §1, with “plasmid:” for “plasmid”, “384-well” for “96-well”, “2×10^6” for “70,000”, “cells/well. […]” for “cells/well.”

[4] = tested on: panelists; experiment: Quantitative organoleptic evaluation of kokumi-imparting activity in umami/salty solution; format: in vivo, human; conditions: for Intensity of Kokumi After Taste / Intensity of Kokumi Initial-Middle Taste: score scale -5 to +5, n=5
Protocol: The scoring was carried out using the linear-scale technique, in which each corresponding score was plotted on a straight line on which the scores equal to −5, 0 and +5 had been expressly specified. In addition, persons selected as panelists in these evaluation tests were persons who had been engaged in the development of a seasoning over a cumulative period of at least a half year, and who could so judge that the difference between γ-Glu-Cys-Gly and γ-Glu-Val-Gly, each of which was added to a solution having umami and salty taste, was about 10 times (this ability was confirmed at regular intervals). In this respect, the term “initial-middle taste” means the taste detected from 0 to 5 seconds after placing and maintaining each sample in each panelist's mouth, and the term “after taste” means that detected thereafter.

[5] = tested on: panelists; experiment: Quantitative organoleptic evaluation of kokumi-imparting activity in cow's milk; format: in vivo, human; conditions: for Intensity of Kokumi After Taste / Intensity of Kokumi Initial-Middle Taste: score scale -5 to +5, n=5
Protocol: The quantitative organoleptic evaluation test was carried out according to the following procedures: The intensity of the kokumi-imparting activity of the test compound was determined using a mixture obtained by adding, to the commercially available cow's milk (fat content: 3.6%), […] The pH value of the samples used was adjusted to that of the control free of any test compound (i.e., the pH value of the latter +0.2). […] The scoring was carried out using the linear-scale technique, in which each corresponding score was plotted on a straight line on which the scores equal to −5, 0 and +5 had been expressly specified. […] In this respect, the term “initial-middle taste” means the taste detected during the term ranging from 0 to 5 seconds after keeping each sample in each panelist's mouth and the term “after taste” means that detected thereafter.

[6] = 0.0001 g/dL in dried bonito extract 20.0 g/dL with common salt 0.5 g/dL
[7] = 0.0005 g/dL in dried bonito extract 20.0 g/dL with common salt 0.5 g/dL
[8] = 0.0001 g/dL in water with MSG 0.05, IMP 0.05, NaCl 0.5 g/dL
[9] = 0.0005 g/dL in water with MSG 0.05, IMP 0.05, NaCl 0.5 g/dL
[10] = 0.0001 g/dL in cow's milk (fat content 3.6%)
[11] = 0.0005 g/dL in cow's milk (fat content 3.6%)
[12] = 0.01 g/dL, reference standard for the scoring
[13] = 0.001 g/dL in dried bonito extract 20.0 g/dL with common salt 0.5 g/dL
[14] = 0.001 g/dL in water with MSG 0.05, IMP 0.05, NaCl 0.5 g/dL
[15] = 0.001 g/dL in cow's milk (fat content 3.6%)

N[C@@H](CCC(=O)N[C@H]1CSC[C@H](C(=O)O)NC1=O)C(=O)O [Compound 8a]
EC50 [1]: 14300 nM

N[C@@H](CCC(=O)N[C@H]1CSC[C@@H](C(=O)O)NC1=O)C(=O)O [Compound 8b]
Intensity of Kokumi After Taste [2, 6]: 2.5 | Intensity of Kokumi Initial-Middle Taste [2, 6]: 2.3 | kokumi-imparting activity (in words) ([2]; 0.0001 to 0.0005 g/dL in dried bonito extract solution): showed its kokumi-imparting activity over the wide range of the foregoing added concentrations | Intensity of Kokumi After Taste [2, 7]: 3.7 | Intensity of Kokumi Initial-Middle Taste [2, 7]: 3.5 | CaSR agonist activity relative to that of γ-Glu-Cys [3]: about 9 times | EC50 [1]: 53 nM | Intensity of Kokumi After Taste [4, 8]: 2.4 | Intensity of Kokumi Initial-Middle Taste [4, 8]: 2.3 | kokumi-imparting activity (in words) ([4]; 0.0001 to 0.0005 g/dL in water with MSG, IMP, NaCl): showed its kokumi-imparting activity over the wide range of the foregoing added concentrations | Intensity of Kokumi After Taste [4, 9]: 3.5 | Intensity of Kokumi Initial-Middle Taste [4, 9]: 3.4 | Intensity of Kokumi After Taste [5, 10]: 2.3 | Intensity of Kokumi Initial-Middle Taste [5, 10]: 2.4 | kokumi-imparting activity (in words) ([5]; 0.0001 to 0.0005 g/dL in cow's milk): showed its kokumi-imparting activity over the wide range of the foregoing added concentrations | Intensity of Kokumi After Taste [5, 11]: 3.5 | Intensity of Kokumi Initial-Middle Taste [5, 11]: 3.5

N[C@@H](CCC(=O)N[C@@H]1CSC[C@@H](C(=O)O)NC1=O)C(=O)O [Compound 8c]
EC50 [1]: 20000 nM

N[C@@H](CCC(=O)N[C@@H]1CSC[C@H](C(=O)O)NC1=O)C(=O)O [Compound 8d]
EC50 [1]: 1950 nM

N[C@@H](CCC(=O)N[C@H]1CSCCC(C(=O)O)NC1=O)C(=O)O (stereo partly drawn) [Compound 21]
EC50 [1]: 1850 nM

C[C@@H]1SC[C@H](NC(=O)CC[C@H](N)C(=O)O)C(=O)N[C@@H]1C(=O)O [Compound 29]
EC50 [1]: 580 nM

N[C@@H](CCC(=O)NC1CCCC(C(=O)O)NC1=O)C(=O)O (stereo partly drawn) [Compound 35]
EC50 [1]: 199 nM

N[C@@H](CCC(=O)N[C@@H](CS)C(=O)O)C(=O)O [γ-Glu-Cys, reference compound]
EC50 [1]: 460 nM

N[C@@H](CCC(=O)N[C@@H](CS)C(=O)NCC(=O)O)C(=O)O [γ-Glu-Cys-Gly, reference compound]
intensity of the kokumi, after taste [2, 12]: 3.0 | intensity of the kokumi, initial-middle taste [2, 12]: 3.0 | intensity of the kokumi, after taste [4, 12]: 3.0 | intensity of the kokumi, initial-middle taste [4, 12]: 3.0 | intensity of the kokumi, after taste [5, 12]: 3.0 | intensity of the kokumi, initial-middle taste [5, 12]: 3.0

CC(C)[C@H](NC(=O)CC[C@H](N)C(=O)O)C(=O)NCC(=O)O [γ-Glu-Val-Gly, reference compound]
Intensity of Kokumi After Taste [2, 13]: 3.0 | Intensity of Kokumi Initial-Middle Taste [2, 13]: 2.5 | Comments for the Evaluation ([2]; 0.001 g/dL in dried bonito extract solution): The fish meat taste of the dried | Intensity of Kokumi After Taste [4, 14]: 3.0 | Intensity of Kokumi Initial-Middle Taste [4, 14]: 2.5 | Comments for the Evaluation ([4]; 0.001 g/dL in water with MSG, IMP, NaCl): The kokumi is strengthened mainly | Comments for the Evaluation ([5]; 0.001 g/dL in cow's milk): The thickness feeling of the cow's | Intensity of Kokumi After Taste [5, 15]: 3.0 | Intensity of Kokumi Initial-Middle Taste [5, 15]: 2.5
